Results: US8871753B2, “Macrocyclic compounds and their use as kinase inhibitors” (Incyte Corporation, priority 2008, dated 2014)
Where a name gives a salt, the structure may show the parent alone.

Legend:
Assay type in all cases: biochemical
[1] = biological target: T1, human JAK3 (a.a. 781-1124) (Homo sapiens, UniProt P52333); test: In vitro JAK kinase assay (HTRF, phosphorylation of a biotinylated peptide), JAK3; conditions: Table B1
T1 construct: JAK3 (a.a. 781-1124); His tag (N); made in house; host or cells: insect cells (baculovirus)
T1 sequence (P52333 781-1124): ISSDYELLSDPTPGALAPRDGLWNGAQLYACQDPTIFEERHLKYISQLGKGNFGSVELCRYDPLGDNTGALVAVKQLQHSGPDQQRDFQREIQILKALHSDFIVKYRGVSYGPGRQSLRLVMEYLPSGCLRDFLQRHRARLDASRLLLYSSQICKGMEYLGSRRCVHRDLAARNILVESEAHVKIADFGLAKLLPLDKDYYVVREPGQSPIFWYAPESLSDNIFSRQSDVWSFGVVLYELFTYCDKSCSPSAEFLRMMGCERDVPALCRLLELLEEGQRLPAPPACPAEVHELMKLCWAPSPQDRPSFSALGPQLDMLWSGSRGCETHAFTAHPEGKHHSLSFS
Method in brief: (§1)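 Kinase activity was measured as phosphorylation of a biotinylated peptide, with ATP at 90 μM for JAK1, 30 μM for JAK2 and 3 μM for JAK3. Reactions ran 1 hr at room temperature, were stopped with EDTA plus SA-APC and Eu-Py20, and were read by HTRF after 40 minutes of antibody binding.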

[2] = biological target: T2, human JAK1 (a.a. 837-1142) (Homo sapiens, UniProt P23458); test: In vitro JAK kinase assay (HTRF, phosphorylation of a biotinylated peptide), JAK1; conditions: Table B1; read-out: JAK1 IC50
T2 construct: human JAK1 (a.a. 837-1142); His tag (N); made in house; host or cells: insect cells (baculovirus)
T2 sequence (P23458 849-1154): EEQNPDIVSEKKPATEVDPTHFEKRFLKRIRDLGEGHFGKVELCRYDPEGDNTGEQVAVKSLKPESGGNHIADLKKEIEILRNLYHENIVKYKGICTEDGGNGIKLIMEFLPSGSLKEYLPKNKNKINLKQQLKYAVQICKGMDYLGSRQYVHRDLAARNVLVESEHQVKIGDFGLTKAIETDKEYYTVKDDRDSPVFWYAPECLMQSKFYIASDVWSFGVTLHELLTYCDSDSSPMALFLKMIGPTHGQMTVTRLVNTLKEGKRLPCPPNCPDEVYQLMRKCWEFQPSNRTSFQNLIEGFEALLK
Method in brief: as §1

[3] = biological target: T3, Recombinant Human Anaplastic Lymphoma Kinase (Homo sapiens, UniProt Q9UM73); test: ALK HTRF kinase assay; conditions: compound at a concentration of 500 nM or 1 mM (not specified); cells shown as percentage
T3 construct: purchased Invitrogen, Carlsbad, Calif
T3 sequence (Q9UM73 19-1620): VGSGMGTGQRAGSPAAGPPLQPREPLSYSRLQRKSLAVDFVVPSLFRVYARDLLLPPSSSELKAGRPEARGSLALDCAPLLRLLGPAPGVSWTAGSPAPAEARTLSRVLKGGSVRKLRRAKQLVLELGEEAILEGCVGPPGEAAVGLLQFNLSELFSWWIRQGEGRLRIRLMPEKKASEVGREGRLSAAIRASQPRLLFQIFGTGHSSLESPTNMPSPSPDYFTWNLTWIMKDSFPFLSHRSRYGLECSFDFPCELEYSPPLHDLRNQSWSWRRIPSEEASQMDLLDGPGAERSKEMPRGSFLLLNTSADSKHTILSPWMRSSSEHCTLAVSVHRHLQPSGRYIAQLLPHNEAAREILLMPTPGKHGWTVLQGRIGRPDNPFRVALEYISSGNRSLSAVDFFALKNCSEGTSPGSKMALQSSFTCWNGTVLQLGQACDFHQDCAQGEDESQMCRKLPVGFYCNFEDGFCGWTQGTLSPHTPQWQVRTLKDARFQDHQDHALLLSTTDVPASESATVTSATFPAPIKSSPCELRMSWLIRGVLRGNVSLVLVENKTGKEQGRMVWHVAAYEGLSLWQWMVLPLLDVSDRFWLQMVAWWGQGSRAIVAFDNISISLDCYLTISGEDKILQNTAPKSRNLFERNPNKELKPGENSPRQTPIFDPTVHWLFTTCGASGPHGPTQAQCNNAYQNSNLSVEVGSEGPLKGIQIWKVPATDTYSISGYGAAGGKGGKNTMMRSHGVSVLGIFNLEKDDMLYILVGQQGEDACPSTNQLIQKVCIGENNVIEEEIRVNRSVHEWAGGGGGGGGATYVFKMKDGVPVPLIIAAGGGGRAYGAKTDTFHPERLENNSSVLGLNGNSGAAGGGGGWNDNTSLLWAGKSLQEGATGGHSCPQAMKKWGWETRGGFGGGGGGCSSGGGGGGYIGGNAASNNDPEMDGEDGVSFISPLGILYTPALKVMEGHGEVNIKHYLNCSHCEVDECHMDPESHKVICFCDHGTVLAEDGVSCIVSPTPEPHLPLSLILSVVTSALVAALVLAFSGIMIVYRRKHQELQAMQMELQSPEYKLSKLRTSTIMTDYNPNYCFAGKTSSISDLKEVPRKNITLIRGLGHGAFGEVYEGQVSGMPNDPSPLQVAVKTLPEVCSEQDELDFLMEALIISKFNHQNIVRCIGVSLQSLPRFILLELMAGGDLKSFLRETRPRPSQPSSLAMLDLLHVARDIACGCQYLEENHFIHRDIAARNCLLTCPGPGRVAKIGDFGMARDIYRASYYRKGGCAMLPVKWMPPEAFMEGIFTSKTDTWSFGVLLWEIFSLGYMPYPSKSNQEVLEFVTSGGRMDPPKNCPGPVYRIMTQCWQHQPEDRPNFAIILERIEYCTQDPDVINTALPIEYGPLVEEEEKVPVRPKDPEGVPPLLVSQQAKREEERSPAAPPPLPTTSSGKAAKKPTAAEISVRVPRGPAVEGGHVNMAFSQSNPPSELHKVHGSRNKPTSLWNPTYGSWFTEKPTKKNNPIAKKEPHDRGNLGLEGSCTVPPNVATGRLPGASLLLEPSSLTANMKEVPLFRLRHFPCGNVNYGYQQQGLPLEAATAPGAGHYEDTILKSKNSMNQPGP
Method in brief: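 Recombinant human ALK phosphorylated a biotinylated synthetic peptide. Phosphotyrosine was detected by TR-FRET between a Eu-labelled anti-phosphotyrosine antibody and streptavidin-allophycocyanin. IC50 values came from fitting signal against inhibitor concentration to a four-parameter logistic equation with variable Hill slope.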

TYK2 = TYK2 (Homo sapiens, UniProt P29597); test: TYK2 kinase inhibition (Table A1); conditions: Table B1
Sequence of TYK2 (P29597 whole entry): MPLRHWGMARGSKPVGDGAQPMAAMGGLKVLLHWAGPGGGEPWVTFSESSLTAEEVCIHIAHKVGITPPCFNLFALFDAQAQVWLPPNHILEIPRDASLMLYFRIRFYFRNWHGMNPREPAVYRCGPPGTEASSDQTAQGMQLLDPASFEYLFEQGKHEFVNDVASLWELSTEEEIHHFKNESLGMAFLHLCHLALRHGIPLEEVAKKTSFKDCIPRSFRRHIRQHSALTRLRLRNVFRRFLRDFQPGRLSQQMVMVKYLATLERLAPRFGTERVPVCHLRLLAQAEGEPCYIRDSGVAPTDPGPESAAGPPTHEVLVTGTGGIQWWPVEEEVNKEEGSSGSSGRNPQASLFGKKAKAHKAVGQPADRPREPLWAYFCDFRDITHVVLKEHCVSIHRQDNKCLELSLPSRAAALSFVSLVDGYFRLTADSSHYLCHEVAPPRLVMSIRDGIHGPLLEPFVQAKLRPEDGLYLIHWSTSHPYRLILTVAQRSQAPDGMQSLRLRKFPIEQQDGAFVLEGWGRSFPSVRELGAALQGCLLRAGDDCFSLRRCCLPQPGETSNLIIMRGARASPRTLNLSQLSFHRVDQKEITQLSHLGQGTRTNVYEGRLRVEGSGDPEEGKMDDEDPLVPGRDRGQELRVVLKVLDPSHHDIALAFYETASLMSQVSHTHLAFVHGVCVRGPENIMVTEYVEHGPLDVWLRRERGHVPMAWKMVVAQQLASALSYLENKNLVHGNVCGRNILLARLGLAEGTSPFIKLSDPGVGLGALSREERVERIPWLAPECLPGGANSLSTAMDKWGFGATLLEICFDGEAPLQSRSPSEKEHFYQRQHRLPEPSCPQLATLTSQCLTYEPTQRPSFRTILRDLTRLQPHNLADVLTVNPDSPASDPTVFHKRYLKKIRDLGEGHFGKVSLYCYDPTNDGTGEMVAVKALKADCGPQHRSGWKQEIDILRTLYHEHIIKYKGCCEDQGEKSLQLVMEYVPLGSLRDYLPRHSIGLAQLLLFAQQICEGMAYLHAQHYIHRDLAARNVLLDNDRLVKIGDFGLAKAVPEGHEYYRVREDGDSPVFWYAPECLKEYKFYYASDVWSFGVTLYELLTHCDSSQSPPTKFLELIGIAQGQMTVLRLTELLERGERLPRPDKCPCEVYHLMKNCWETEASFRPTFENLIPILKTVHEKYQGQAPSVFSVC

[4] = biological target: T4, human JAK2 (a.a. 828-1132) (Homo sapiens, UniProt O60674); test: In vitro JAK kinase assay (HTRF, phosphorylation of a biotinylated peptide), JAK2; conditions: Table B1
T4 construct: JAK2 (a.a. 828-1132); His tag (N); made in house; host or cells: insect cells (baculovirus)
T4 sequence (O60674 828-1132): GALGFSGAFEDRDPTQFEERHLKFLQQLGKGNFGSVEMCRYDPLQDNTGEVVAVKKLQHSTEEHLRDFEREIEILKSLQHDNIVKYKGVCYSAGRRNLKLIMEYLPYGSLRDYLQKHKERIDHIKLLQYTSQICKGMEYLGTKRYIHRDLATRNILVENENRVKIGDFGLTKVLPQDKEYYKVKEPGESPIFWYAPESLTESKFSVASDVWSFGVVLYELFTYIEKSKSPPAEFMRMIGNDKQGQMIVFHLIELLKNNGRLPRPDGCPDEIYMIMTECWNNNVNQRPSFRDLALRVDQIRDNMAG
Method in brief: as §1

Row | Compound | IC50 [1] | IC50 [2] | ALK % of inhibition at a concentration of 500 nM or 1 mM [3] | IC50 (TYK2) | IC50 [4]
1 | Cn1cc(C(=O)N2CC[C@H](NC(=O)Nc3ccc4cc3CCc3cncc(c3)Nc3ncc(Cl)c(n3)N4)C2)cn1 [Example B269, N-[6-Chloro-2,4,8,18,22-pentaazatetracyclo[14.3.1.1(3,7).1(9,13)]docosa-1(20),3(22),4,6,9(21),10,12,16,18-nonaen-12-yl]-N′-{(3S)-1-[(1-methyl-1H-pyrazol-4-yl)carbonyl]pyrrolidin-3-yl}urea bis(trifluoroacetate)] | > 10 µM | 0.013 µM | 10% | 0.727 µM | 0.409 µM
2 | O=C(Nc1ccc2cc1CCc1cncc(c1)Nc1ncc(Cl)c(n1)N2)N[C@H]1CCN(C(=O)c2cc(C3CC3)on2)C1 [Example B270, N-[6-Chloro-2,4,8,18,22-pentaazatetracyclo[14.3.1.1(3,7).1(9,13)]docosa-1(20),3(22),4,6,9(21),10,12,16,18-nonaen-12-yl]-N′-{(3S)-1-[(5-cyclopropylisoxazol-3-yl)carbonyl]pyrrolidin-3-yl}urea bis(trifluoroacetate)] | > 10 µM | 0.02 µM | 10% | 0.607 µM | 0.279 µM
3 | O=C(Nc1ccc2cc1CCc1cncc(c1)Nc1ncc(Cl)c(n1)N2)N[C@H]1CCN(C(=O)c2ccno2)C1 [Example B271, N-[6-Chloro-2,4,8,18,22-pentaazatetracyclo[14.3.1.1(3,7).1(9,13)]docosa-1(20),3(22),4,6,9(21),10,12,16,18-nonaen-12-yl]-N′-[(3S)-1-(isoxazol-5-ylcarbonyl)pyrrolidin-3-yl]urea bis(trifluoroacetate)] | > 10 µM | 0.0087 µM | 10% | 0.847 µM | 0.44 µM
4 | Cn1ccc(C(=O)N2CC[C@H](NC(=O)Nc3ccc4cc3CCc3cncc(c3)Nc3ncc(Cl)c(n3)N4)C2)n1 [Example B272, N-[6-Chloro-2,4,8,18,22-pentaazatetracyclo[14.3.1.1(3,7).1(9,13)]docosa-1(20),3(22),4,6,9(21),10,12,16,18-nonaen-12-yl]-N′-{(3S)-1-[(1-methyl-1H-pyrazol-3-yl)carbonyl]pyrrolidin-3-yl}urea bis(trifluoroacetate)] | > 10 µM | 0.014 µM | 23% | 0.575 µM | 0.316 µM
5 | Cc1ncoc1C(=O)N1CC[C@H](NC(=O)Nc2ccc3cc2CCc2cncc(c2)Nc2ncc(Cl)c(n2)N3)C1 [Example B273, N-[6-Chloro-2,4,8,18,22-pentaazatetracyclo[14.3.1.1(3,7).1(9,13)]docosa-1(20),3(22),4,6,9(21),10,12,16,18-nonaen-12-yl]-N′-{(3S)-1-[(4-methyl-1,3-oxazol-5-yl)carbonyl]pyrrolidin-3-yl}urea bis(trifluoroacetate)] | > 10 µM | 0.117 µM | 3.2% | 3.83 µM | 1.63 µM
6 | Cc1noc(C)c1C(=O)N1CC[C@H](NC(=O)Nc2ccc3cc2CCc2cncc(c2)Nc2ncc(Cl)c(n2)N3)C1 [Example B274, N-[6-chloro-2,4,8,18,22-pentaazatetracyclo[14.3.1.1(3,7).1(9,13)]docosa-1(20),3(22),4,6,9(21),10,12,16,18-nonaen-12-yl]-N′-{(3S)-1-[(3,5-dimethylisoxazol-4-yl)carbonyl]pyrrolidin-3-yl}urea bis(trifluoroacetate)] | > 10 µM | 0.06 µM | 18% | 0.325 µM | 0.192 µM
7 | O=C(Nc1ccc2cc1CCc1cncc(c1)Nc1ncc(Cl)c(n1)N2)N[C@H]1CCN(c2nc3cccnc3o2)C1 [Example B275, N-[6-Chloro-2,4,8,18,22-pentaazatetracyclo[14.3.1.1(3,7).1(9,13)]docosa-1(20),3(22),4,6,9(21),10,12,16,18-nonaen-12-yl]-N′-[(3S)-1-[1,3]oxazolo[5,4-b]pyridin-2-ylpyrrolidin-3-yl]urea tris(trifluoroacetate)] | > 10 µM | 0.014 µM | 9.8% | 0.348 µM | 0.129 µM

Next, values leading:

Row | IC50 [1] | IC50 [2] | ALK % of inhibition at a concentration of 500 nM or 1 mM [3] | IC50 (TYK2) | IC50 [4] | Compound
8 | 0.052 µM | 0.0038 µM | 13% | 0.023 µM | 0.007 µM | CC(C)(C)OC(=O)N1CCN(CCNC(=O)Nc2ccc3cc2CCc2cccc(c2)Nc2ncc(Cl)c(n2)N3)CC1 [Example B259, tert-Butyl 4-{2-[({[6-chloro-2,4,8,22-tetraazatetracyclo[14.3.1.1(3,7).1(9,13)]docosa-1(20),3(22),4,6,9(21),10,12,16,18-nonaen-12-yl]amino}carbonyl)amino]ethyl}piperazine-1-carboxylate]
9 | 0.051 µM | 0.0047 µM | 26% | 0.02 µM | 0.0099 µM | O=C(NCCN1CCNCC1)Nc1ccc2cc1CCc1cccc(c1)Nc1ncc(Cl)c(n1)N2 [Example B260, N-[6-Chloro-2,4,8,22-tetraazatetracyclo[14.3.1.1(3,7).1(9,13)]docosa-1(20),3(22),4,6,9(21),10,12,16,18-nonaen-12-yl]-N′-(2-piperazin-1-ylethyl)urea trihydrochloride]
10 | 0.081 µM | 0.0095 µM | 24% | 0.081 µM | 0.029 µM | CN1CC[C@H](NC(=O)Nc2ccc3cc2CCc2cccc(c2)Nc2ncc(Cl)c(n2)N3)C1 [Example B261, N-[6-Chloro-2,4,8,22-tetraazatetracyclo[14.3.1.1(3,7).1(9,13)]docosa-1(20),3(22),4,6,9(21),10,12,16,18-nonaen-12-yl]-N′-[(3S)-1-methylpyrrolidin-3-yl]urea bis(trifluoroacetate)]
11 | 0.038 µM | 0.0026 µM | 19% | 0.0087 µM | 0.0047 µM | O=C(Nc1ccc2cc1CCc1cccc(c1)Nc1ncc(Cl)c(n1)N2)N[C@H]1CCN(c2ncccn2)C1 [Example B262, N-[6-Chloro-2,4,8,22-tetraazatetracyclo[14.3.1.1(3,7).1(9,13)]docosa-1(20),3(22),4,6,9(21),10,12,16,18-nonaen-12-yl]-N′-[(3S)-1-pyrimidin-2-ylpyrrolidin-3-yl]urea bis(trifluoroacetate)]
12 | 0.11 µM | 0.0067 µM | 29% | 0.022 µM | 0.0093 µM | Cc1cc(C(=O)N2CCC(NC(=O)Nc3ccc4cc3CCc3cccc(c3)Nc3ncc(Cl)c(n3)N4)CC2)no1 [Example B263, N-[6-Chloro-2,4,8,22-tetraazatetracyclo[14.3.1.1(3,7).1(9,13)]docosa-1(20),3(22),4,6,9(21),10,12,16,18-nonaen-12-yl]-N′-{1-[(5-methylisoxazol-3-yl)carbonyl]piperidin-4-yl}urea trifluoroacetate]
13 | 0.216 µM | 0.014 µM | 27% | 0.054 µM | 0.025 µM | Cc1oncc1C(=O)N1CCC(NC(=O)Nc2ccc3cc2CCc2cccc(c2)Nc2ncc(Cl)c(n2)N3)CC1 [Example B264, N-[6-chloro-2,4,8,22-tetraazatetracyclo[14.3.1.1(3,7).1(9,13)]docosa-1(20),3(22),4,6,9(21),10,12,16,18-nonaen-12-yl]-N′-{1-[(5-methylisoxazol-4-yl)carbonyl]piperidin-4-yl}urea trifluoroacetate]
14 | 0.085 µM | 0.014 µM | 23% | 0.015 µM | 0.141 µM | Cc1cc(C(=O)N2CC[C@H](NC(=O)Nc3ccc4cc3CCc3cncc(c3)Nc3ncc(Cl)c(n3)N4)C2)no1 [Example B265, N-[6-Chloro-2,4,8,18,22-pentaazatetracyclo[14.3.1.1(3,7).1(9,13)]docosa-1(20),3(22),4,6,9(21),10,12,16,18-nonaen-12-yl]-N′-{(3S)-1-[(5-methylisoxazol-3-yl)carbonyl]pyrrolidin-3-yl}urea bis(trifluoroacetate)]
15 | > 10 µM | 0.027 µM | 12% | 0.887 µM | 0.765 µM | O=C(Nc1ccc2cc1CCc1cncc(c1)Nc1ncc(Cl)c(n1)N2)N[C@H]1CCN(C(=O)c2cn[nH]c2)C1 [Example B267, N-[6-chloro-2,4,8,18,22-pentaazatetracyclo[14.3.1.1(3,7).1(9,13)]docosa-1(20),3(22),4,6,9(21),10,12,16,18-nonaen-12-yl]-N′-[(3S)-1-(1H-pyrazol-4-ylcarbonyl)pyrrolidin-3-yl]urea bis(trifluoroacetate)]
16 | > 10 µM | 0.0098 µM | 16% | 0.541 µM | 0.273 µM | O=C(Nc1ccc2cc1CCc1cncc(c1)Nc1ncc(Cl)c(n1)N2)N[C@H]1CCN(C(=O)c2ccn[nH]2)C1 [Example B268, N-[6-Chloro-2,4,8,18,22-pentaazatetracyclo[14.3.1.1(3,7).1(9,13)]docosa-1(20),3(22),4,6,9(21),10,12,16,18-nonaen-12-yl]-N′-[(3S)-1-(1H-pyrazol-5-ylcarbonyl)pyrrolidin-3-yl]urea bis(trifluoroacetate)]
